Values after ≈ are worked out from the molar mass of the structure shown. Where two headings read alike, the source gives them in different places.
Experiments:
[1] = system: LPS-induced TNFα production in mouse peritoneal macrophages; experiment: LPS-induced TNFα production in mouse peritoneal macrophages (ELISA); type: cell-based; conditions: Mus musculus, Peritoneal macrophage, 24 h, mouse peritoneal macrophages, 100 ng/ml LPS 24 h; measured twice, mean ± standard deviation; read-out: IC50, dose-dependent inhibition of TNFα production in macrophages
Method: To isolate peritoneal macrophages, male Balb/c mice were intraperitoneally injected with 2 ml of 3.5% sterile thioglycolate (B D, Sparks, Md., USA) 4 days before being sacrificed. Mice were sacrificed by cervical dislocation, and peritoneal secretory cells were aseptically isolated through peritoneal washing with cold DMEM (HyClone, Logan, Utah, USA) containing 10% FBS (fetal bovine serum; HyClone) and 1% penicillin-streptomycin. After centrifugation, cells were resuspended and counted using a TC20 Cell Counter (Bio-Rad Laboratories, Hercules, Calif., USA). Peritoneal secretory cells were left in a 24-well plate overnight at 37° C., and non-adherent cells were removed. The cells were then stimulated with 100 ng/ml lipopolysaccharide (LPS) for 24 hours. The supernatant was collected during cytokine analysis, and the level of TNFα in the supernatant was measured using BD OptEIA mouse ELISA sets (BD Biosciences, San Diego, Calif., USA) according to the manufacturer's protocol. […] IC50 (μM) values were measured twice, respectively, and expressed as mean±standard deviation.

[2] = system: TNFα; experiment: mRNA expression of TNFα in lymphedema tissue; type: in vivo; conditions: 7th day after surgery, mouse
Text: As a result, it was confirmed that the expression level of TNFα mRNA was decreased in the compound 1 treatment group and the compound 14a treatment group (with respect to the control group, *: P<0.05; with respect to compound 1, #: P<0.05).

[3] = Pharmacokinetic analysis in mice after I.V. and oral administration; type: in vivo, mouse; conditions: male CD-1 mice; for Cmax: read-out: Cmax (maximum plasma concentration)
Method: Compounds were administered to 5-week-old male CD-1 mice through 1 mg/kg tail vein administration (administration volume of 5 mL/kg), 20 mg/kg oral administration, and 100 mg/kg oral administration, respectively. Three mice were used for each independent experiment. Blood samples were taken in an amount of 20 μL to 30 μL via the saphenous vein at 5, 15, 30, 60, 120, 180, 360, and 1440 minutes.
In addition, pharmacokinetic parameters were calculated from non-compartmental analysis using Win Non-lin.
In Table 3, T1/2 denotes the terminal half-life, Cmax denotes the maximum plasma concentration, AUC-O denotes the area under the plasma concentration-time curve from time zero to infinity, and indicates exposure concentration of whole blood, and BA represents bioavailability expressed as (AUCpo/AUCiv)×100. […] Cmax and AUC∞ are mean±SD values obtained from three male ICR mice. Regarding blood exposure during systemic circulation of the compound, the compound was orally administered at an amount of 100 mg/kg, and then, AUC (area under the curve) was measured, and the obtained measurements were compared.

[4] = system: PPARγ; experiment: Immunofluorescence staining of PPARγ in epidermal layer of lymphedema tissue; type: in vivo; conditions: mouse
Text: (§1) Tissue samples were collected on the 7th day after surgery to induce lymphedema at a location 15 mm-25 mm from the right leg of the mouse. The harvested tissue samples were fixed with 10% formalin solution, and the specimens were cut to a thickness of 5 μm. Sections were deparaffinized in 100% xylene, rehydrated with a series of 100% ethanol, 95% ethanol, 90% ethanol, 80% ethanol, and 70% ethanol, and washed with water. Sections were reacted with hematoxylin solution at room temperature. After washing in PBS, sections were stained with eosin at room temperature. Images were acquired by a Pannoramic viewer microscope (3[…] Ltd., Hungary). Prepared slides were incubated using anti-mouse PPARγ (Santa Cruz Biotechnology, USA) and Alexa Fluor 488 and DAPI (Life Technologies, USA). Samples were analyzed using a Nikon ECLIPSE 80i microscope (Nikon Instruments Inc., Japan).
In addition, peroxisome […] (PPARγ) is a major regulator of lipogenesis, and as shown in FIG. 4B showing the results of immunofluorescence staining, the distribution of PPARγ in the epidermal layer of lymphedema tissue after treatment with compound 1 and compound 14a was suppressed.

[5] = system: lymphedema induced in mice; experiment: Prophylactic effect on lymphedema formation, surgically induced murine lymphedema model (volume); type: in vivo, mouse; conditions: 7th day after surgery, oral administration 7 days before surgery, then once every two days, vs control group
Method: All animal tests in the following examples were performed after obtaining approvals by the Institutional Animal Care and Use Committee (IACUC) of Sungkyunkwan University School of Medicine (Approval No.: […]-20150037). All methods were performed according to the approved guidelines. […] Briefly, major lymphatic sites including inguinal lymph nodes, popliteal lymph nodes, deep inguinal lymph nodes and femoral lymphatic vessels were removed, and the lower right leg of the mouse was limitedly cauterized under anesthesia.
Compounds 1, 7m, and 14a were each orally administered to mice for 7 days before surgical induction of lymphedema in mice.
On the other hand, in the control group, the compound 1 treatment group, the compound 7m treatment group, and the compound 14a treatment group, lymphedema was induced through surgery. After surgery, the compounds were administered once every two days.
The volume of lymphedema was measured on the 7th day after surgery, and the size of the lymphedema was recorded using a caliper ruler by a person who was blinded to the treatment status of the mice.

[6] = system: lymphedema tissue; experiment: Histological (H&E) analysis of lymphedema tissue of the right hind leg; type: in vivo; conditions: 7th day after surgery, right hind leg of mouse
Text: as §1
In FIG. 3A, the scale bar of the upper panel is 500 μm, and the scale bar of the lower panel is 100 μm.
In FIG. 4A, the scale bar of the upper panel is 200 μm, and the scale bar of the lower panel is 100 μm.

[7] = Physicochemical properties (pKa, logP, solubility)
Text: Compound 1 is butein and the therapeutic effect on lymphedema thereof is disclosed in Korean Patent Publication No. 10-1533197 (published on Jul. 2, 2015).

[8] = system: PPARγ and a target protein Fabp4; experiment: Expression of PPARγ and Fabp4 in lymphedema tissue (western blot, mRNA); type: in vivo; conditions: mouse
[9] = mouse, plasma, iv, I.V, 1 mg/Kg
[10] = mouse, plasma, po, P.O, 20 mg/Kg

IC50 [1]: 14.6 ± 1.56 µM
T1/2 (terminal half-life) ([3]; I.V, 1 mg/Kg): 81.6 min
Tmax ([3]; I.V, 1 mg/Kg): 12 min
T1/2 (terminal half-life) ([3]; P.O, 20 mg/Kg): 34.2 min
Tmax ([3]; P.O, 20 mg/Kg): 24 min
Cmax (maximum plasma concentration) ([3]; P.O, 100 mg/Kg): 1.6 µg/mL
T1/2 (terminal half-life) ([3]; P.O, 100 mg/Kg): 21 min
Tmax ([3]; P.O, 100 mg/Kg): 24 min
BA (bioavailability) ([3]; P.O, 100 mg/Kg, (AUCpo/AUCiv)×100): 7.5%
AUC(0-inf) [3, 9]: 0.163 µg·h/mL
Cmax [3, 9]: 0.11 µg/mL
AUC(0-inf) [3, 10]: 0.141 µg·h/mL
bioavailability ([3]; mouse, plasma, po, P.O, 20 mg/Kg, (AUCpo/AUCiv)×100, read-out: BA (bioavailability)): 4%
Cmax [3, 10]: 0.083 µg/mL
melting point: 204.9 °C
logP (partition coefficient) [7]: 3.47
solubility ([7]; water solubility, read-out: Solubility): 0.136 mg/mL (≈ 361 µM)
Compound: O=C(Oc1cc(O)ccc1C(=O)/C=C/c1ccc(O)c(O)c1)c1ccccc1 [compound 14a, (E)-2-(3-(3,4-dihydroxyphenyl)acryloyl)-5-hydroxyphenyl benzoate]
expression level of TNFα mRNA in lymphedema tissue (FIG. 3B) [2]: decreased
distribution of PPARγ in the epidermal layer of lymphedema tissue (FIG. 4B) [4]: suppressed
volume of lymphedema reduced by [5]: 70%
development of adipose tissue in the epidermal layer (H&E, FIG. 4A) [6]: inhibiting the development of adipose tissue in the epidermal layer
neutrophil infiltration and epidermal layer of lymphedema tissue (H&E, FIG. 3A) [6]: decreased neutrophil infiltration and ameliorated the epidermal layer of lymphedema tissue
levels of PPARγ and Fabp4 mRNA (FIG. 4D) ([8]; lymphedema tissue): more significant efficacy even compared to compound 1
expression of PPARγ and Fabp4 in lymphedema tissue (western blot, FIG. 4C) [8]: reduced the expression of PPARγ

— patent US20230099567A1, “COMPOSITION FOR TREATMENT, PREVENTION, OR AMELIORATION OF LYMPHEDEMA” (RAPPELER CO., LTD., priority 2020, published 2023)
